Experimental data: patent US10633419B2, “Immunomodulators” (BRISTOL-MYERS SQUIBB COMPANY, priority 2014, dated 2020)
Where two headings read alike, the source gives them in different places. Positions of bridges follow the written chain, without caps; N, C: chain ends. Non-standard residues stand in square brackets, D forms with d. Residues, ends and D or L forms follow the SMILES beside them. *: point of attachment. Ala(1-CH2COOH-inden-3-yl) = N[C@@H](CC1=CC(CC(=O)O)c2ccccc21)C(=O)O; Trp(1-CH2COOH) = N[C@@H](Cc1cn(CC(=O)O)c2ccccc12)C(=O)O; Palmitoyl = CCCCCCCCCCCCCCCC(=O)*; Hyp = O=C(O)[C@@H]1C[C@@H](O)CN1; Myristoyl = CCCCCCCCCCCCCC(=O)*; Undecanoyl = CCCCCCCCCCC(=O)*; NMeNle = CCCC[C@H](NC)C(=O)O; Dap(Me) = CNC[C@H](N)C(=O)O; Pip = O=C(O)[C@@H]1CCCCN1; NMeA = CN[C@@H](C)C(=O)O; Pra = C#CC[C@H](N)C(=O)O; Aun = NCCCCCCCCCCC(=O)O; Dab = NCC[C@H](N)C(=O)O

Biological target: T1, PD-L1 (Homo sapiens, UniProt Q9NZQ7)
T1 construct: hPDL1(19-239)-TVMV-His; made in house; host or cells: HEK293T
Experiment: PD-1/PD-L1 Homogenous Time-Resolved Fluorescence (HTRF) binding assay (PD-1-Ig/PD-L1-His)
Method in brief: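 HTRF competition in dPBS with 0.1% BSA and 0.05% Tween-20: 20 nM PD-1-Ig added after 15 min compound pre-incubation with 10 nM PD-L1-His, then another 15 min. Signal (665/620 nm) after 30 min with APC anti-His (20 nM) and Eu anti-Ig (1 nM).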

[1] = inhibition of PD-1-Ig binding to PD-L1-TVMV-His, value given as range class, read-out: HTRF IC50

T1 sequence (Q9NZQ7 with tags, fused parts or gaps): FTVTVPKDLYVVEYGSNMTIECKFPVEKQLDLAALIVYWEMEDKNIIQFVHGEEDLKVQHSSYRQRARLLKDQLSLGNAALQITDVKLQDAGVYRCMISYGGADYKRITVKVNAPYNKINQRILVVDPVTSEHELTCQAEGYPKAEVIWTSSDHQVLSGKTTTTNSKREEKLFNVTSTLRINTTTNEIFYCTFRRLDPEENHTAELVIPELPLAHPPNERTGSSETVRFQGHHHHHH

| Compound | IC50 [1] | other results |
| --- | --- | --- |
| CCCC[C@H]1C(=O)N(C)[C@@H](CCCC)C(=O)N[C@@H](CC(C)C)C(=O)N[C@H](C(=O)NCC(=O)NCC(=O)NCC(=O)NCCCCCCCCCCC(=O)O)CSCC(=O)N[C@@H](Cc2ccc(O)cc2)C(=O)N(C)[C@@H](C)C(=O)N[C@@H](CCC(=O)O)C(=O)N2CCC[C@H]2C(=O)N[C@@H](Cc2cnc[nH]2)C(=O)N[C@@H](CCCCN)C(=O)N2C[C@H](O)C[C@H]2C(=O)N[C@@H](Cc2c[nH]c3ccccc23)C(=O)N[C@@H](CCCCN)C(=O)N[C@@H](Cc2cn(CC(=O)O)c3ccccc23)C(=O)N1C [Example 11092] ({CH2CO}-Y[NMeA]EPHK[Hyp]WK[Trp(1-CH2COOH)][NMeNle][NMeNle]LCGGG[Aun]-OH; thioether N-14) |  | IC50 (inhibition of PD-1-Ig binding to PD-L1-TVMV-His, value given as number, read-out: HTRF IC50): 13.5 nM |
| CCCCCCCCCCCCCC(=O)NCCCC[C@H](NC(=O)[C@H](CC(=O)O)NC(=O)CNC(=O)[C@@H]1CSCC(=O)N[C@@H](Cc2ccc(O)cc2)C(=O)N(C)[C@@H](C)C(=O)N[C@@H](CC(=O)O)C(=O)N2CCC[C@H]2C(=O)N[C@@H](Cc2cnc[nH]2)C(=O)N[C@@H](CC(C)C)C(=O)N2C[C@H](O)C[C@H]2C(=O)N[C@@H](Cc2c[nH]c3ccccc23)C(=O)N[C@@H](CO)C(=O)N[C@@H](Cc2c[nH]c3ccccc23)C(=O)N(C)[C@@H](CCCC)C(=O)N(C)[C@@H](CCCC)C(=O)N[C@@H](CCCNC(=N)N)C(=O)N1)C(N)=O [Example 11016] ({CH2CO}-Y[NMeA]DPHL[Hyp]WSW[NMeNle][NMeNle]RCGDK(Myristoyl)-NH2; thioether N-14) | 10 to 99 nM |  |
| CCCCCCCCCCCCCCCC(=O)NCCCC[C@H](NC(=O)[C@@H]1CSCC(=O)N[C@@H](Cc2ccc(O)cc2)C(=O)N(C)[C@@H](C)C(=O)N[C@@H](CC(N)=O)C(=O)N2CCC[C@H]2C(=O)N[C@@H](CCN)C(=O)N[C@@H](CC(C)C)C(=O)N2C[C@H](O)C[C@H]2C(=O)N[C@@H](Cc2c[nH]c3ccccc23)C(=O)N[C@@H](CO)C(=O)N[C@@H](Cc2c[nH]c3ccccc23)C(=O)N(C)[C@@H](CCCC)C(=O)N(C)[C@@H](CCCC)C(=O)N[C@@H](CCCNC(=N)N)C(=O)N1)C(N)=O [Example 11019] ({CH2CO}-Y[NMeA]NP[Dab]L[Hyp]WSW[NMeNle][NMeNle]RCK(Palmitoyl)-NH2; thioether N-14) | 100 to 1600 nM |  |
| CCCC[C@H]1C(=O)N(C)[C@@H](CCCC)C(=O)N[C@@H](CC(C)C)C(=O)N[C@H](C(=O)NCC(=O)NCC(=O)NCC(=O)NCCCCCCCCCCC(=O)O)CSCC(=O)N[C@@H](Cc2ccc(O)cc2)C(=O)N(C)[C@@H](C)C(=O)N[C@@H](CC(N)=O)C(=O)N2CCC[C@H]2C(=O)N[C@@H](Cc2cnc[nH]2)C(=O)N[C@@H](CCC(=O)O)C(=O)N2C[C@H](O)C[C@H]2C(=O)N[C@@H](Cc2c[nH]c3ccccc23)C(=O)N[C@@H](CCN)C(=O)N[C@@H](Cc2cn(CC(=O)O)c3ccccc23)C(=O)N1C [Example 11079] ({CH2CO}-Y[NMeA]NPHE[Hyp]W[Dab][Trp(1-CH2COOH)][NMeNle][NMeNle]LCGGG[Aun]-OH; thioether N-14) | 10 to 99 nM |  |
| C#CC[C@H](NC(=O)CNC(=O)[C@@H]1CSCC(=O)N[C@@H](Cc2ccc(O)cc2)C(=O)N2CCCC[C@H]2C(=O)N[C@@H](CC(N)=O)C(=O)N2CCC[C@H]2C(=O)N[C@@H](CNC)C(=O)N[C@@H](CC(C)C)C(=O)N2C[C@H](O)C[C@H]2C(=O)N[C@@H](Cc2c[nH]c3ccccc23)C(=O)N[C@@H](CCN)C(=O)N[C@@H](Cc2cn(CC(=O)O)c3ccccc23)C(=O)N(C)[C@@H](CCCC)C(=O)N(C)[C@@H](CCCC)C(=O)N[C@@H](CCC(=O)O)C(=O)N1)C(=O)O [INT130AL] ({CH2CO}-Y[Pip]NP[Dap(Me)]L[Hyp]W[Dab][Trp(1-CH2COOH)][NMeNle][NMeNle]ECG[Pra]-OH; thioether N-14) | 0.3 to 9.9 nM |  |
| CCCC[C@H]1C(=O)N(C)[C@@H](CCCC)C(=O)N[C@@H](CC(C)C)C(=O)N[C@H](C(=O)NCC(=O)NCC(=O)NCCCCCCCCCCC(=O)O)CSCC(=O)N[C@@H](Cc2ccc(O)cc2)C(=O)N(C)[C@@H](C)C(=O)N[C@@H](CC(N)=O)C(=O)N2CCC[C@H]2C(=O)N[C@@H](Cc2cnc[nH]2)C(=O)N[C@@H](CCC(=O)O)C(=O)N2C[C@H](O)C[C@H]2C(=O)N[C@@H](Cc2c[nH]c3ccccc23)C(=O)N[C@@H](CCN)C(=O)N[C@@H](CC2=CC(CC(=O)O)c3ccccc32)C(=O)N1C (stereo partly shown) [Example 11078] ({CH2CO}-Y[NMeA]NPHE[Hyp]W[Dab][Ala(1-CH2COOH-inden-3-yl)][NMeNle][NMeNle]LCGG[Aun]-OH; thioether N-14) | 0.3 to 9.9 nM |  |
| CCCC[C@H]1C(=O)N(C)[C@@H](CCCC)C(=O)N[C@@H](CC(=O)O)C(=O)N[C@H](C(=O)N[C@@H](Cc2cn(CCC(NC(=O)CCCCCCCCCCCCCCCCC(=O)O)C(=O)O)nn2)C(=O)O)CSCC(=O)N[C@@H](Cc2ccc(O)cc2)C(=O)N(C)[C@@H](C)C(=O)N[C@@H](CC(N)=O)C(=O)N2CCC[C@H]2C(=O)N[C@@H](CN)C(=O)N[C@@H](CC(C)C)C(=O)N2C[C@H](O)C[C@H]2C(=O)N[C@@H](Cc2c[nH]c3ccccc23)C(=O)N[C@@H](CCN)C(=O)N[C@@H](Cc2cn(CC(=O)O)c3ccccc23)C(=O)N1C (stereo partly shown) [Example 13131] | 10 to 99 nM |  |
| CCCC[C@H]1C(=O)N(C)[C@@H](CCCC)C(=O)N[C@@H](CCC(=O)O)C(=O)N[C@H](C(=O)NCC(=O)N[C@@H](Cc2cn(CCCCCNC(=O)CCC(=O)Oc3c(C)c(C)c4c(c3C)CC[C@@](C)(CCC[C@H](C)CCC[C@H](C)CCCC(C)C)O4)nn2)C(=O)N[C@@H](CC(=O)O)C(N)=O)CSCC(=O)N[C@@H](Cc2ccc(O)cc2)C(=O)N(C)[C@@H](C)C(=O)N[C@@H](CC(=O)O)C(=O)N2CCC[C@H]2C(=O)N[C@@H](Cc2c[nH]cn2)C(=O)N[C@@H](CCCCN)C(=O)N2C[C@H](O)C[C@H]2C(=O)N[C@@H](Cc2c[nH]c3ccccc23)C(=O)N[C@@H](CCCCN)C(=O)N[C@@H](Cc2c[nH]c3ccccc23)C(=O)N1C [Example 14056] |  | IC50: 100 to 1600 nM |
| CCCCCCCCCCC(=O)NCCCC[C@H](NC(=O)[C@H](CCC(=O)O)NC(=O)CNC(=O)[C@@H]1CSCC(=O)N[C@@H](Cc2ccc(O)cc2)C(=O)N(C)[C@@H](C)C(=O)N[C@@H](CC(N)=O)C(=O)N2CCC[C@H]2C(=O)N[C@@H](Cc2cnc[nH]2)C(=O)N[C@@H](CCC(=O)O)C(=O)N2C[C@H](O)C[C@H]2C(=O)N[C@@H](Cc2c[nH]c3ccccc23)C(=O)N[C@@H](CO)C(=O)N[C@@H](Cc2c[nH]c3ccccc23)C(=O)N(C)[C@@H](CCCC)C(=O)N(C)[C@@H](CCCC)C(=O)N[C@@H](CC(C)C)C(=O)N1)C(N)=O [Example 11010] ({CH2CO}-Y[NMeA]NPHE[Hyp]WSW[NMeNle][NMeNle]LCGEK(Undecanoyl)-NH2; thioether N-14) | 10 to 99 nM |  |
| CCCC[C@H]1C(=O)N(C)[C@@H](CCCC)C(=O)N[C@@H](CCC(=O)O)C(=O)N[C@H](C(=O)NCC(=O)N[C@@H](Cc2cn(CC[C@H](NC(=O)CCCCCCCCCCCCCCCCC(=O)O)C(=O)O)nn2)C(=O)O)CSCC(=O)N[C@@H](Cc2ccc(O)cc2)C(=O)N(C)[C@@H](C)C(=O)N[C@@H](CC(=O)O)C(=O)N2CCC[C@H]2C(=O)N[C@@H](CN)C(=O)N[C@@H](CC(C)C)C(=O)N2C[C@H](O)C[C@H]2C(=O)N[C@@H](Cc2c[nH]c3ccccc23)C(=O)N[C@@H](CCN)C(=O)N[C@@H](Cc2cn(CC(=O)O)c3ccccc23)C(=O)N1C [Example 13126] | 10 to 99 nM |  |
